The results in this text go back to patent US10947196B2, “Beta adrenergic agonist and methods of using the same” (CURASEN THERAPEUTICS, INC., priority 2019, dated 2021).

One series has as its target β2 adrenergic receptor (Homo sapiens (Human), UniProt P07550). In words: cAMP Gs dynamic HTRF assay, β2 expressing CHO cells. Type of series: cell-based. Summed up: (§1)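 Intracellular cAMP quantified by Eu-donor/d2-acceptor HTRF after 30 min compound exposure at 37° C in stimulation buffer with IBMX. Concentrations ran 10 μM top, 5-fold steps, 10 points. Cell lines: 1321N1 astrocytoma and CHO expressing β1 or β2; EC50 via four-parameter fit, relative efficacy against isoproterenol.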

Series [1] is described as follows: Hepatocyte stability (dog). The settings on record: 0.5×10^6 viable cells/mL. The class given is in vitro ADME. The method, then:
10 mM and 100 μM stock solutions of test compound(s) and a positive control were prepared in appropriate solvent (DMSO). In separate conical tubes, the 10 mM test compound and the positive control were diluted to 100 μM by combining 198 μL of 50% acetonitrile/50% water and 2 μL of 10 mM stock. The 100 μM test compound and the positive control were diluted to 30 μM by combining 140 μL of 50% acetonitrile/50% water and 60 μL of 100 μM stock solution. The 100 μM test compound and the positive control were diluted to 10 μM by combining 180 μL of 50% acetonitrile/50% water and 20 μL of 100 μM stock solution. The 100 μM test compound and the positive control were diluted to 3 μM by combining 194 μL of 50% acetonitrile/50% water and 6 μL of 100 μM stock solution.
Incubation medium (William's E Medium supplemented with GlutaMAX) and hepatocyte thawing medium was placed in a 37° C. water bath, and allowed to warm for at least 15 minutes prior to use. A vial of cryopreserved hepatocytes from storage was then removed, ensuring that the vial remains at cryogenic temperatures until thawing process ensues. Cells were thawed by placing the vial in a 37° C. water bath and gently shaking the vial for 2 minutes. After thawing was completed, the vial was sprayed with 70% ethanol and transferred to a biosafety cabinet.
A wide-bore pipette tip was used to transfer hepatocytes into 50 mL conical tube containing thawing medium. The 50 mL conical tube was placed into a centrifuge and spun at 100 g for 10 minutes. Upon completion of spin, the thawing medium was aspirated and the hepatocytes were resuspended in enough incubation medium to yield ˜1.5×10^6 cells/mL.
Using AOPI staining solution, cells were counted and the viable cell density was determined. Cells with poor viability (<75% viability) are not acceptable for use. […]
All calculations were carried out using Microsoft Excel. Peak areas were determined from extracted ion chromatograms. […]
The in vitro half-life (in vitro t1/2) was determined from the slope value: in vitro t1/2=0.693/k

Series [2] is described as follows: Rat CNS exposure measurement (plasma, CSF, brain). Type of series: in vivo, male SD rats. The settings on record: male, SD.
For the next series, the target named is β1-adrenergic receptor (Homo sapiens (Human), UniProt P08588). The experiment in a line: cAMP Gs dynamic HTRF assay, β1 expressing CHO cells. Type of series: cell-based. Summed up: as §1
For orientation: TR-FRET usually uses a lanthanide donor and a delayed reading to cut background.

Where [3] appears, read: B2-AR, CHO-K cells, read-out: Average EC50 [Receptor subtype: B2-AR, Cell type: CHO-K].
The mark [4] stands for this setting: B1-AR, CHO-K cells, read-out: Average EC50 [Receptor subtype: B1-AR, Cell type: CHO-K].

Where two headings read alike, the source gives them in different places. A value given as a limit tells only on which side of the number the result lay.

Sequence of β1-adrenergic receptor (P08588 whole entry, species assumed): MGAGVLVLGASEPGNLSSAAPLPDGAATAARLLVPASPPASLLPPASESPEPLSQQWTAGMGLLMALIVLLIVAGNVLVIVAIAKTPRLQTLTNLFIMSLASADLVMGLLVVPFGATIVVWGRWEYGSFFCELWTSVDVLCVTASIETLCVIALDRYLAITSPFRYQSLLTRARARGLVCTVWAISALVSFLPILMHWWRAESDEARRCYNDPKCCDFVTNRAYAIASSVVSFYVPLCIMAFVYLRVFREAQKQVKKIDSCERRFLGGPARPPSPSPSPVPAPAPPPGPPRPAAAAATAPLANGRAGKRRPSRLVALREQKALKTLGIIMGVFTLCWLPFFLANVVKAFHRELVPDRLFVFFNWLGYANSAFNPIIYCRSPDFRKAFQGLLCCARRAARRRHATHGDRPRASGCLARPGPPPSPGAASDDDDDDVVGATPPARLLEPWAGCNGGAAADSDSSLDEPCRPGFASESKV
Sequence of β2 adrenergic receptor (P07550 whole entry, species assumed): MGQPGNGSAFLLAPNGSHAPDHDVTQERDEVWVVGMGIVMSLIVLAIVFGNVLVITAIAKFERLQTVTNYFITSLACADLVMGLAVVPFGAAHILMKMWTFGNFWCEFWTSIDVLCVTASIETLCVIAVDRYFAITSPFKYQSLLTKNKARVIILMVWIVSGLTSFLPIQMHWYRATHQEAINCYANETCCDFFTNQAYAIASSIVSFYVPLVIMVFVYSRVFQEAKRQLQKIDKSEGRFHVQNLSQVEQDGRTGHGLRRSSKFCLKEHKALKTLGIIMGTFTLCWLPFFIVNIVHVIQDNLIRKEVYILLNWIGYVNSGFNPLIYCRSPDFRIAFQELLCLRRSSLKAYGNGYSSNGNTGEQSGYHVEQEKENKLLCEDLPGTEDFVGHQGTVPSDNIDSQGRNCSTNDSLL

Consider `CC(C)(C)NC[C@H](O)c1cccc(C#N)n1` [Compound 03-5, (S)-6-(2-(tert-butylamino)-1-hydroxyethyl)picolinonitrile], for which, at β2 adrenergic receptor (B2-AR, CHO-K1 (HitHunter)), the “Average pEC50 [Receptor subtype: B2-AR; Cell type: CHO-K1 (HitHunter)]” value was “B-A”. Moreover, the values for the EC50 at β2 adrenergic receptor (setting [3]) and on β1-adrenergic receptor (setting [4]) were less than 10 nM and 100 to 1000 nM, respectively. Besides, in series [1], the “Hepatocyte stability, Dog” value is on record as 5.94-7.63 μL/min/10^6 cells. In addition, the concentration at 1 h in series [2] (CSF, IV 1 mg/kg, read-out: Concentration, CSF) came to 113 ng/mL; in series [2] (CSF, PO 5 mg/kg, read-out: Concentration, CSF) it was 242 ng/mL; in series [2] (brain, IV 1 mg/kg, read-out: Concentration, Brain) it was 267 ng/g; in series [2] (brain, PO 5 mg/kg, read-out: Concentration, Brain), 497 ng/g; in series [2] (plasma, IV 1 mg/kg, read-out: Concentration, Plasma) it was 184 ng/mL; in series [2] (plasma, PO 5 mg/kg, read-out: Concentration, Plasma), 642 ng/mL. Moreover, the “Average pEC50 [Receptor subtype: B1-AR; Cell type: CHO-K1 (HitHunter)]” value on β1-adrenergic receptor (B1-AR) is “C (C = <7-6)”.
Take `CC(C)(C)NC[C@H](O)c1cccc(C(F)(F)F)n1` [Compound 03-3]: the EC50 at β2 adrenergic receptor (cAMP HTRF, read-out: β2 EC50) was less than 10 nM; at β1-adrenergic receptor (β1 EC50 (nM), cAMP HTRF) it was 10 to 100 nM. Besides, the “Hepatocyte stability, Dog” value in series [1] was 5.3 μL/min/10^6 cells. Also, the concentration at 1 h is 142 ng/mL in series [2] (CSF, iv, 1 mg/kg, IV 1 mg/kg, read-out: Concentration, CSF); 680 ng/g in series [2] (brain, iv, 1 mg/kg, IV 1 mg/kg, read-out: Concentration, Brain); 199 ng/mL in series [2] (plasma, iv, 1 mg/kg, IV 1 mg/kg, read-out: Concentration, Plasma).
For the compound `Cc1ncccc1[C@@H](O)CNC(C)(C)C` [Compound 03-115], the EC50 is 10 to 100 nM at β2 adrenergic receptor (B2-AR, CHO-K1 (HitHunter), read-out: Average pEC50 [Receptor subtype: B2-AR, Cell type: CHO-K1 (HitHunter)] (converted)); 10 to 100 nM at β2 adrenergic receptor (setting [3]); greater than 1000 nM at β1-adrenergic receptor (setting [4]). Also, in series [1], the “Hepatocyte stability, Dog” value is given as 8.13 μL/min/10^6 cells. The concentration at 1 h was determined as 149 ng/mL in series [2] (in vivo, SC 1 mg/kg, read-out: Concentration, Plasma); 142 ng/g in series [2] (in vivo, sc, 1 mg/kg, SC 1 mg/kg, read-out: Concentration, Brain); 56.2 ng/mL in series [2] (in vivo, sc, 1 mg/kg, SC 1 mg/kg, read-out: Concentration, CSF). The “Average pEC50 [Receptor subtype: B1-AR; Cell type: CHO-K1 (HitHunter)]” value at β1-adrenergic receptor (B1-AR) is “C-D”.
